Key:
cruzain = cruzain (Trypanosoma cruzi, UniProt P25779); experiment: biochemical; details: for Cruzain 0’ Inhibition / Cruzain 10’ Inhibition: sheet "Screening results"
Summary of the method: (§1)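 Recombinant enzymes assayed by Z-Phe-Arg-AMC cleavage at 25 °C, fluorescence 340/440 nm over 5–7 min, with 10 min or no enzyme–compound preincubation.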

TbrCatL = molecular target: T1, TbrCatL (Trypanosoma brucei rhodesiense, UniProt Q95PM0); experiment: TbrCatL enzymatic inhibition assay (cleavage of fluorogenic substrate Z-FR-AMC); format: biochemical; details: for TbrCatL 0’ Inhibition / TbrCatL 10’ Inhibition: sheet "Screening results"
T1 construct: Conor Caffrey (University of California San Diego)
T1 sequence (Q95PM0 entry or part of it): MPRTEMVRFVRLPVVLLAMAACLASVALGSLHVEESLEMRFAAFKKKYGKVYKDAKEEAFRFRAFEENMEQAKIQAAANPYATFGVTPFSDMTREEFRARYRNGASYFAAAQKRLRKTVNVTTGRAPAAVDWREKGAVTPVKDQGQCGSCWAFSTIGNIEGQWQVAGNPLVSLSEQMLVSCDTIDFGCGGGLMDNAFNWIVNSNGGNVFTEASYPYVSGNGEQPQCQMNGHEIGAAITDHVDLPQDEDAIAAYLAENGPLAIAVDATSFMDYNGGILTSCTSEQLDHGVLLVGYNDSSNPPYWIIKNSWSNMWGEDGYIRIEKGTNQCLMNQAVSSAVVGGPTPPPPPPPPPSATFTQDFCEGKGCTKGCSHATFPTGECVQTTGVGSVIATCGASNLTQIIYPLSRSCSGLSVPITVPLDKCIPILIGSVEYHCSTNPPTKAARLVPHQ
Summary of the method: as §1

[1] = 0’ (no pre-incubation), sheet Screening results
[2] = 10’ (pre-incubation), sheet Screening results
[3] = 0’ (pre-incubation time), Pathogen Box screening results
[4] = 10’ (pre-incubation time), Pathogen Box screening results
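Also: at 5 µM compound concentration.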

Sequence of cruzain (P25779 123-337 limits assumed): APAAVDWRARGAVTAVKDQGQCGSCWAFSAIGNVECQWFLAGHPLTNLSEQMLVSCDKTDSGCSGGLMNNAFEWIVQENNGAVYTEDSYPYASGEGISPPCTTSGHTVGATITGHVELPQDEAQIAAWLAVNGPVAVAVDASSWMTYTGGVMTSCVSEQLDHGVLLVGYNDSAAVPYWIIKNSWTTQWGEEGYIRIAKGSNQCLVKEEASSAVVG

Row | SMILES | Cruzain Inhibition 0’ (cruzain; [1]) [%] | Cruzain Inhibition 10’ (cruzain; [2]) [%] | TbrCatL Inhibition 0’ (TbrCatL; [1]) [%] | TbrCatL Inhibition 10’ (TbrCatL; [2]) [%] | Cruzain 0’ Inhibition (cruzain; 0’ (pre-incubation time)) [%] | Cruzain 10’ Inhibition (cruzain; 10’ (pre-incubation time)) [%] | TbrCatL 0’ Inhibition (TbrCatL; 0’ (pre-incubation time)) [%] | TbrCatL 10’ Inhibition (TbrCatL; 10’ (pre-incubation time)) [%] | other results
1 | COc1ccc(Cl)cc1NC(=O)CN(C)C(=O)c1cnn(-c2ccccc2)n1 [MMV020710] | -11 | -36 | -10 | -99 | – | – | – | – | –
2 | CN1CCCN(C(c2ccccc2)c2ccc(Cl)cc2)CC1 (centres unmarked) [MMV004168] | – | – | – | – | 3.6 | 6.6 | -5.4 | 1.8 | –
3 | Nc1ccc(C(=O)Nc2ccc(-c3nc4ccccc4o3)cc2)cc1 [MMV007920] | – | – | – | – | 7 | 11 | 4.7 | -0.7 | –
4 | CC(C)(C)C(=O)N(CCCCCCN1C[C@H](O)[C@@H](O)[C@H](O)[C@H]1CO)C1CCCCCC1 [MMV688543] | – | – | – | – | – | – | – | – | Cruzain Inhibition 0’ (cruzain; [3]): -1.2%; Cruzain Inhibition 10’ (cruzain; [4]): 7.5%; TbrCatL Inhibition 0’ (TbrCatL; [3]): -7%; TbrCatL Inhibition 10’ (TbrCatL; [4]): 1.7%
5 | O=C(c1cc2ccccc2o1)N1CCN(Cc2ccc3c(c2)OCO3)CC1 [MMV676520] | -1.2 | -3.3 | 5 | -4.7 | – | – | – | – | –
6 | CCn1ncc2c(NC3CCOCC3)c(CNC(=O)c3ccnn3C)c(C)nc21 [MMV026356] | – | – | – | – | -0.3 | 1.1 | -6 | -7 | –
7 | C[C@H]1COC2(CCN(c3nc(=O)c4cc(C(F)(F)F)cc([N+](=O)[O-])c4s3)CC2)O1 [MMV676603] | 1.3 | 1.7 | 4.5 | 2.8 | – | – | – | – | –
8 | CCc1cc(=O)n(C)c(SC(C)C(=O)Nc2ccc(F)cc2)n1 (centres unmarked) [MMV688980] | – | – | – | – | -3.8 | -0.6 | -11 | -14 | –
9 | COc1ccc(Oc2ccc([C@@H](C)N(C)c3ncc4c(N)nc(N)nc4n3)cc2)cc1 [MMV690102] | – | – | – | – | 0.4 | 12 | -2.5 | 14 | –
10 | CCOC(=O)c1noc(N)c1-c1ccccc1 [MMV1236379] | – | – | – | – | – | – | – | – | Cruzain Inhibition 0’ (cruzain; [3]): -8%; Cruzain Inhibition 10’ (cruzain; [4]): 7%; TbrCatL Inhibition 0’ (TbrCatL; [3]): -9%; TbrCatL Inhibition 10’ (TbrCatL; [4]): -1.7%
11 | Brc1cncc(-c2cc(NCCCn3ccnc3)nc(-c3ccccc3)n2)c1 [MMV661713] | 20 | 13 | 20 | 10 | – | – | – | – | –
12 | OC[C@H]1O[C@@H](n2c3ccc(Cl)cc3c3c(-c4cc5ccccc5o4)ncnc32)C(O)[C@H]1O (some centres unmarked) [MMV688921] | – | – | – | – | 4.7 | 11 | 5.5 | 4.4 | –
13 | CCC(=O)Nc1ccccc1C(=O)Nc1ccccn1 [MMV202553] | 15 | 14 | 15 | 7 | – | – | – | – | –
14 | CS(=O)(=O)N1CCC(Cn2nc(Cc3cccc4ccccc34)c3c(N)ncnc32)CC1 [MMV676050] | – | – | – | – | 0.2 | 8 | 0.1 | 3 | –
15 | O=C(Nc1ccc(F)c(-c2nc3ncc(-c4ccccc4)cc3[nH]2)c1)N1CCCC1 [MMV688372] | – | – | – | – | 4 | 4.3 | -5 | -11 | –
16 | O=C(c1ccc(F)cc1)N(CCNc1ccccc1)c1ccccc1 [MMV676204] | 6 | 4.7 | 2.6 | -1.3 | – | – | – | – | –
17 | O=C1N(Cc2cc3ccccc3s2)CC2CN(Cc3ccccc3)CCN12 (centres unmarked) [MMV084603] | 7.6 | 6.4 | 18 | 4.6 | – | – | – | – | –
18 | CC(C)(C)CN1C(=O)C(c2ccccc2)(c2ccccc2)N=C1N [MMV026550] | – | – | – | – | 0 | 2.8 | -5 | 0.2 | –

Row | SMILES | Cruzain Inhibition 0’ (cruzain; [1]) [%] | Cruzain Inhibition 10’ (cruzain; [2]) [%] | TbrCatL Inhibition 0’ (TbrCatL; [1]) [%] | TbrCatL Inhibition 10’ (TbrCatL; [2]) [%] | Cruzain 0’ Inhibition (cruzain; 0’ (pre-incubation time)) [%] | Cruzain 10’ Inhibition (cruzain; 10’ (pre-incubation time)) [%] | TbrCatL 0’ Inhibition (TbrCatL; 0’ (pre-incubation time)) [%] | TbrCatL 10’ Inhibition (TbrCatL; 10’ (pre-incubation time)) [%] | other results
19 | O=C(NCCc1ccn(-c2ccccc2)n1)C1CCCCC1 [MMV688795] | – | – | – | – | 3.2 | 4 | 5 | 5.4 | –
20 | CCNC(=O)C(C)Nc1nc(-c2cccnc2)nc2sc(C)c(C)c12 (centres unmarked) [MMV1037162] | – | – | – | – | -0.8 | 1.7 | 6 | -0.5 | –
21 | COc1ccc(-c2nnc3ccc(-c4cccc(C(C)C)c4)cn23)cc1OC [MMV688313] | – | – | – | – | -16 | -10 | -19 | -27 | –
22 | COc1cc(C2=NCCN2)ccc1-c1cn(-c2cccc(C3=NCCN3)c2)nn1 [MMV688407] | – | – | – | – | 2.2 | 21 | 14 | 36 | –
23 | COc1ccc(-c2cc(NC(=O)c3ccc(F)cc3Cl)ccc2OC)cc1 [MMV676526] | -17 | -8 | -15 | -15 | – | – | – | – | –
24 | N=C(N)c1ccc(-c2cc(-c3ccccc3)on2)cc1 [MMV688514] | 14 | 13 | 20 | -6.6 | – | – | – | – | –
25 | CO[C@@H]1CN(c2ccc(C#CC3(O)CN4CCC3CC4)c(Cc3ccccc3)n2)C[C@H]1O (some centres unmarked) [MMV688415] | – | – | – | – | – | – | – | – | Cruzain Inhibition 0’ (cruzain; [3]): -4%; Cruzain Inhibition 10’ (cruzain; [4]): 16%; TbrCatL Inhibition 0’ (TbrCatL; [3]): -8%; TbrCatL Inhibition 10’ (TbrCatL; [4]): 3%
26 | CCOc1ccc(-c2nc(NC(=O)CS(=O)(=O)c3ccccc3)sc2C)cc1 [MMV007638] | 7 | 10 | 0.6 | 9 | – | – | – | – | –
27 | CC(Oc1cccc(Cl)c1)C(=O)Nc1ccc2oc(-c3ccncc3)nc2c1 (centres unmarked) [MMV688472] | 17 | 14 | 13 | 14 | – | – | – | – | –
28 | COc1ccc(OC)c(NCc2ccc3nc(N)nc(N)c3c2Cl)c1 [MMV675968] | – | – | – | – | 6.6 | 26 | 20 | 22 | –
29 | Cc1ccc(NC(=O)c2nc[nH]c2C(=O)Nc2nc3ccccc3[nH]2)c(C)c1 [MMV011903] | -1.2 | -15 | -18 | -43 | – | – | – | – | –
30 | CCc1nc2ccc(C(=O)NCc3ccc4c(c3)OCO4)cn2c1N(C)Cc1cccs1 [MMV407539] | – | – | – | – | -4 | -3 | -10 | -3.2 | –
31 | O=C(Nc1c(O)cccc1-c1nc2c(C(=O)O)cccc2o1)c1cc(-c2ccccc2)on1 [MMV676008] | – | – | – | – | -3.3 | 8 | 2.6 | -3.7 | –
32 | c1ccc(-c2cc(N3CCCCC3)c3ccccc3n2)nc1 [MMV560185] | 5.5 | -4.5 | 4.5 | -2.4 | – | – | – | – | –
33 | CC(C)(C)OC(=O)N1CCN(c2cc(-c3ccc(Oc4ccccc4)cc3)n[nH]2)CC1 [MMV676057] | – | – | – | – | -1.5 | -3.4 | -2.3 | -12 | –
34 | Cc1ccc2nc(C)c(-c3ccn(Cc4ccccc4)n3)n2c1 [MMV688939] | – | – | – | – | – | – | – | – | Cruzain Inhibition 0’ (cruzain; [3]): -1.4%; Cruzain Inhibition 10’ (cruzain; [4]): -4%; TbrCatL Inhibition 0’ (TbrCatL; [3]): -0.4%; TbrCatL Inhibition 10’ (TbrCatL; [4]): -9%
35 | O=C(Cn1ccnc1[N+](=O)[O-])NCc1ccccc1 [MMV688773] | 19 | 4 | 4.3 | 3.7 | – | – | – | – | –
